# Counter-ions that a name gives are not always drawn. Like-named read-outs stand apart in the source and are kept apart here.
# Columns and labels:
# [1] = Cytotoxicity, microtetrazolium test (MTT); conditions: dog, MDCK cells, CC50 (MDCK), mean ±SD
# SARS-CoV-2 coronavirus = assay: Activity against SARS-CoV-2 coronavirus on U2-OS ACE2 cells (S-Fuse, GFP signal); type: cell-based; conditions: Severe acute respiratory syndrome coronavirus 2, U2OS; SARS-CoV-2, U2-OS ACE2 cells, MOI 0.1, 20 hours
# U2-OS ACE2 cells = assay: Cytotoxicity on U2-OS ACE2 cells (Hoechst signal); conditions: 20 hours
# [2] = Acute oral toxicity, fixed dose method (OECD 420); conditions: for GHS hazard class: acute oral toxicity in mice, UN GHS classification; for Died / Survived: female BALB/c mice, intragastric
# MDCK cells [3] = assay: Cytotoxicity, microtetrazolium test (MTT); conditions: 48 h, mean ±SD
# MDCK cells [4] = tested on: MDCK cells
Molecule,CC50 at 48 h [1],melting point,further results
"COC(=O)c1c(N(Cc2ccccc2)C(C)=O)sc2cc(O)ccc12 [Example 4, Methyl 2-[acetyl(benzyl)amino]-6-hydroxy-1-benzothiophene-3-carboxylate]",200 µg/mL,165 to 167 °C,IC50 (SARS-CoV-2 coronavirus): 10.6 µM; Cytotoxicity (U2-OS ACE2 cells): Non-toxic up to 2500 μM
"COC(=O)c1c(N(Cc2ccccc2F)C(C)=O)sc2c(Cl)c(O)ccc12 [Example 23, Methyl 2-[acetyl(2-fluorobenzyl)amino]-7-chloro-6-hydroxy-1-benzothiophene-3-carboxylate]",> 300 µg/mL,,GHS hazard class [2]: 5; Died ([2]; 2000 mg/kg): 0; Survived ([2]; 2000 mg/kg): 4
"COC(=O)c1c(N(Cc2ccccc2)C(C)=O)sc2c(CN(C)C)c(O)ccc12 [Example 50, Methyl 2-[acelyl (benzyl)amino-7-[(dimethylamino)methyl]-6-hydroxy-1-benzothiophene-3-carboxylate]",182 µg/mL,,IC50 (SARS-CoV-2 coronavirus): 9.08 µM; Cytotoxicity (U2-OS ACE2 cells): Non-toxic up to 2500 μM
COC(=O)c1c(N(Cc2ccccc2F)C(C)=O)sc2c(CN(C)C)c(O)ccc12 [Example 52],180 ± 16 µg/mL,,GHS hazard class [2]: 5; Died ([2]; 2000 mg/kg): 0; Survived ([2]; 2000 mg/kg): 4
COC(=O)c1c(N(Cc2ccc(F)cc2F)C(C)=O)sc2c(CN(C)C)c(O)ccc12 [Example 55],> 300 µg/mL,118 to 122 °C,IC50 (SARS-CoV-2 coronavirus): 15.6 µM; Cytotoxicity (U2-OS ACE2 cells): Non-toxic up to 2500 μM
"COC(=O)c1c(N(CCc2ccccc2F)C(C)=O)sc2c(CN(C)C)c(O)ccc12 [Example 56, Methyl 2-{acetyl[2-(2-fluorophenyl)ethyl]amino}-7-[(dimethylamino)methyl]-6-hydroxy-1-benzothiophene-3-carboxylate]",> 300 µg/mL,114 to 120 °C,
COC(=O)c1c(N(Cc2ccccc2C)C(C)=O)sc2c(CN(C)C)c(O)ccc12 [Example 58],> 300 µg/mL,155 to 160 °C,
COC(=O)c1c(N(Cc2ccccc2C(F)(F)F)C(C)=O)sc2c(CN(C)C)c(O)ccc12 [Example 59],> 300 µg/mL,184 to 188 °C,
COC(=O)c1c(N(Cc2ccccc2C#N)C(C)=O)sc2c(CN(C)C)c(O)ccc12 [Example 60],> 300 µg/mL,178 to 182 °C,
"COC(=O)c1c(N(Cc2ccccc2)C(C)=O)sc2c(CN(C)C)c(O)ccc12 [Example 61, Methyl 2-[acetyl(benzyl)amino-7-[(dimethylamino)methyl]-6-hydroxy-1-benzothiophene-3-carboxylate hydrochloride]",,,CC50 (MDCK) (MDCK cells [3]; hydrochloride): >300 µg/mL; GHS hazard class [2]: 4; Died ([2]; 300 mg/kg): 0; Survived ([2]; 300 mg/kg): 4; Died ([2]; 2000 mg/kg): 1; Survived ([2]; 2000 mg/kg): 1
"COC(=O)c1c(N(Cc2ccc(F)cc2)C(C)=O)sc2c(CN(C)C)c(O)ccc12 [Example 62, Methyl 2-[acetyl(4-fluorobenzyl)amino-7-[(dimethylamino)methyl]-6-hydroxy-1-benzothiophene-3-carboxylate hydrochloride]",92 ± 7 µg/mL,,IC50 (SARS-CoV-2 coronavirus): 11.3 µM; Cytotoxicity (U2-OS ACE2 cells): Non-toxic up to 2500 μM
"CCN(CC)Cc1c(O)ccc2c(C(=O)OC)c(N(Cc3ccccc3)C(C)=O)sc12 [Example 64, hydrochloride]",148 ± 11 µg/mL,,IC50 (SARS-CoV-2 coronavirus): 9.12 µM; Cytotoxicity (U2-OS ACE2 cells): Non-toxic up to 2500 μM
"COC(=O)c1c(N(Cc2ccccc2)C(C)=O)sc2c(CN3CCN(C)CC3)c(O)ccc12 [Example 65, Methyl 2-[acetyl(benzyl)amino-6-hydroxy-7-[(4-methylpiperazin-1-yl)methyl]-1-benzothiophene-3-carboxylate hydrochloride]",18.7 ± 1.6 µg/mL,,IC50 (SARS-CoV-2 coronavirus): 9.8 µM; Cytotoxicity (U2-OS ACE2 cells): Non-toxic up to 2500 μM
"CC(=O)N(Cc1ccccc1)c1sc2c(Cl)c(O)ccc2c1C(=O)O [Example 66, 2-[acetyl(benzyl)amino]-7-chloro-6-hydroxy-1-benzothiophene-3-carboxylic acid]",> 300 µg/mL,240 to 245 °C,
"CC(=O)N(Cc1ccccc1)c1sc2cc(O)ccc2c1C(=O)O [Example 67, 2-[acetyl(benzyl)amino]-6-hydroxy-1-benzothiophene-3-carboxylic acid]",> 300 µg/mL,130 to 135 °C,
"CC(=O)N(Cc1ccccc1Cl)c1sc2c(Cl)c(O)ccc2c1C(=O)O [Example 68, 2-[acetyl(2-chlorobenzyl)amino]-7-chloro-6-hydroxy-1-benzothiophene-3-carboxylic acid]",65 ± 4 µg/mL,265 to 270 °C,

Molecule,CC50 at 48 h [1],melting point,further results
"CC(=O)N(Cc1ccc(F)cc1F)c1sc2c(Cl)c(O)ccc2c1C(=O)O [Example 71, 2-[acetyl(2,4-difluorobenzyl)amino]-7-chloro-6-hydroxy-1-benzothiophene-3-carboxylic acid]",210 ± 16 µg/mL,238 to 242 °C,
"CNC(=O)c1c(N(Cc2ccccc2)C(C)=O)sc2c(Cl)c(O)ccc12 [Example 72, 2-[acetyl(benzyl)amino]-7-chloro-6-hydroxy-N-methyl-1-benzothiophene-3-carboxamide]",160 ± 11 µg/mL,,GHS hazard class [2]: 5; Died ([2]; 2000 mg/kg): 0; Survived ([2]; 2000 mg/kg): 4
"CNC(=O)c1c(N(Cc2ccccc2)C(C)=O)sc2cc(O)ccc12 [Example 73, 2-[acetyl(benzyl)amino]-6-hydroxy-N-methyl-1-benzothiophene-3-carboxamide]",> 300 µg/mL,,GHS hazard class [2]: 5; Died ([2]; 2000 mg/kg): 0; Survived ([2]; 2000 mg/kg): 4; IC50 (SARS-CoV-2 coronavirus): 23 µM; Cytotoxicity (U2-OS ACE2 cells): Non-toxic up to 2500 μM
"CNC(=O)c1c(N(Cc2ccccc2Cl)C(C)=O)sc2c(Cl)c(O)ccc12 [Example 74, 2-[acetyl(2-chlorobenzyl)amino]-7-chloro-6-hydroxy-N-methyl-1-benzothiophene-3-carboxamide]",32 ± 4 µg/mL,200 to 202 °C,
"CNC(=O)c1c(N(Cc2ccccc2F)C(C)=O)sc2c(Cl)c(O)ccc12 [Example 75, 2-[acetyl(2-fluorobenzyl)amino]-7-chloro-6-hydroxy-N-methyl-1-benzothiophene-3-carboxamide]",28 ± 4 µg/mL,108 to 112 °C,
"CNC(=O)c1c(N(Cc2ccccc2F)C(C)=O)sc2cc(O)ccc12 [Example 76, 2-[acetyl(2-fluorobenzyl)amino]-6-hydroxy-N-methyl-1-benzothiophene-3-carboxamide]",> 300 µg/mL,105 to 112 °C,
CNC(=O)c1c(N(Cc2ccc(F)cc2)C(C)=O)sc2c(Cl)c(O)ccc12 [Example 77],32.2 ± 2.4 µg/mL,192 to 195 °C,
"CNC(=O)c1c(N(Cc2ccc(F)cc2F)C(C)=O)sc2c(Cl)c(O)ccc12 [Example 78, 2-[acetyl(2,4-difluorobenzyl)amino]-7-chloro-6-hydroxy-N-methyl-1-benzothiophene-3-carboxamide]",68 ± 5 µg/mL,125 to 130 °C,
"CCNC(=O)c1c(N(Cc2ccccc2)C(C)=O)sc2cc(O)ccc12 [Example 79, 2-[acetyl(benzyl)amino]-6-hydroxy-N-ethyl-1-benzothiophene-3-carboxamide]",250 ± 21 µg/mL,138 to 142 °C,
"CCCNC(=O)c1c(N(Cc2ccccc2)C(C)=O)sc2cc(O)ccc12 [Example 80, 2-[acetyl(benzyl)amino]-6-hydroxy-N-propyl-1-benzothiophene-3-carboxamide]",240 ± 16 µg/mL,85 to 90 °C,
"CC(=O)N(Cc1ccccc1)c1sc2cc(O)ccc2c1C(N)=O [Example 81, 2-[acetyl(benzyl)amino]-6-hydroxy-1-benzothiophene-3-carboxamide]",251 ± 19 µg/mL,110 to 115 °C,
"CC(=O)N(Cc1ccccc1)c1sc2c(Cl)c(O)ccc2c1C(=O)N1CCCCC1 [Example 82, N-benzyl-N-[7-chloro-6-hydroxy-3-(piperidin-1-ylcarbonyl)-1-benzothien-2-yl]acetamide]",16.3 ± 0.8 µg/mL,95 to 100 °C,
"CNC(=O)c1c(N(Cc2ccccc2F)C(C)=O)sc2c(CN(C)C)c(O)ccc12 [Example 84, 2-[acetyl(2-fluorobenzyl)amino]-7-[(dimethylamino)methyl]-6-hydroxy-N-methyl-1-benzothiophene-3-carboxamide]",> 300 µg/mL,122 to 126 °C,
"CSc1nc2nnc([N+](=O)[O-])c(=O)n2[nH]1 [Triazavirin, Methylthionitrooxodihydro-triazolotriazinide sodium]",,,CC50 (MDCK) (MDCK cells [4]): 298 ± 22 µg/mL
"CCOC(=O)c1c(CSc2ccccc2)n(C)c2cc(Br)c(O)c(CN(C)C)c12 [Umifenovir, reference compound]",16 µg/mL,,IC50 (SARS-CoV-2 coronavirus): 76 µM; Cytotoxicity (U2-OS ACE2 cells): Non-toxic up to 2500 μM
"Pentandioic acid imidazolylethanamide [Ingavirin, reference compound]",,,CC50 (MDCK) (MDCK cells [3]): 300 ± 12 µg/mL
